Measured values as given in article PMC6053448, “Small molecule activator of Nm23/NDPK as an inhibitor of metastasis” (Scientific Reports, 2018).

What was measured:
[1] = target: T1, recombinant human Nm23-H1 (NDPK-A) (Homo sapiens, UniProt P15531); experiment: NDPK assay, activation; format: biochemical; details: number only in supplement
T1 construct: gene NME1; pET-3c, E. coli BL21(DE3), no tag mentioned; ATP-sepharose purification

[2] = target: T1, recombinant human Nm23-H1 (NDPK-A); experiment: NDPK assay, double reciprocal plot; format: biochemical; details: 5 µM ATP, without NMac1

T1 sequence (P15531 whole entry): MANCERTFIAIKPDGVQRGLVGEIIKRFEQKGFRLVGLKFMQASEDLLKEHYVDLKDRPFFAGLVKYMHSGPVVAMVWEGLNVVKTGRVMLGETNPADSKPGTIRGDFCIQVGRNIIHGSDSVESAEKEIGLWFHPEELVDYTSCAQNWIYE

In the case of COc1ccc(/C=C/[C@H]2CCC=C[C@@H]2c2ccc(OC)c(OC)c2)cc1OC [NMac3, 3S-(3,4-dimethoxyphenyl)-4R-[(E)-3,4-dimethoxystyryl]cyclohex-1-ene], the “% activation” value [1] is reported as “The chirality of the molecule did not affect the activation of Nm23-H1”.
With O=c1ccn([C@@H]2O[C@H](COP(=O)(O)OP(=O)(O)O)[C@@H](O)[C@H]2O)c(=O)[nH]1 [UDP] the Km [2] was “NMac1 decreased the Km value of Nm23-H1 for substrate UDP without affecting Vmax”.
